Article doi:10.1101/2019.12.17.868638v2 (biorxiv, 2019)

System: RlSQase* (sulfoquinovosidase, K375A/K376A SERp variant)
Conditions: 50 mM sodium phosphate, 150 mM NaCl, pH 7.2, 30 °C, 212 nM enzyme

In the case of `O=[N+]([O-])c1ccc(O[C@H]2O[C@H](CS(=O)(=O)O)[C@@H](O)[C@H](O)[C@H]2O)cc1` [PNPSQ], the Km is reported as 680 ± 250 µM.
